Data as given in US20250127813A1, “COMBINATION DRUG” (OTSUKA PHARMACEUTICAL CO., LTD., priority 2021, published 2025).
“Also recorded” adds a separate entry of the source.

Tests used:
[1] = system: NALM6-luc2; test: Combination of tolinapant and CD19 CAR-T against a low volume of tumor (NALM6-luc2, NOG mice); type: in vivo, mouse
Excerpt: (§1) For the measurement, IVIS (trademark) Lumina X5 was used.

[2] = system: MM.1S-luc2; test: Combination of tolinapant and activated integrin β7 CAR-T in MM.1S-luc2 tumor-bearing NOG mice; type: in vivo, mouse
Method: (§2) Each mouse was identified with a number attached to the tail of the mouse. During the breeding period, the mice were housed in groups of 5 mice each and bred in a breeding room at a temperature of 24° C.
The evaluation period was set to up to day 14 or day 21. Grouping and pharmacological evaluation were performed using tumor luminescence values as determined by IVIS as an indicator. The luminescence value as determined by IVIS and body weight were measured twice a week.
After grouping, the individuals were identified by marking on the tail of each mouse.
as §1

[3] = system: A375; test: Combination of tolinapant and NY-ESO-1 TCR-T in A375 subcutaneous tumor-bearing NOG mice; type: in vivo, mouse
Method: Each mouse was identified with a number attached to the tail of the mouse.
The evaluation period was set to 2 weeks, and grouping and pharmacological evaluation were performed based on the results of tumor diameter measurement using a caliper. The tumor diameter and body weight were measured twice a week.
Using trypsin-EDTA-PBS(−), the cultured cells were detached and collected and then centrifuged (4° C., 1200 rpm, 5 min). After removing the supernatant, D-PBS (−) was added and the cells were resuspended and washed by centrifugation in the same manner as above. This washing operation was further repeated twice. After a portion of the cell suspension was taken and the number of viable cells was counted using AOPI Staining Solution, a cell suspension at 1×10^7 cells/mL was prepared using D-PBS(−), After the preparation, the cell suspension was stored in ice until transplantation. […]
On the eighth day after the transplantation, the long diameter and the short diameter were measured and the tumor volume was calculated. […]
The tumor diameter was determined by measuring the short diameter and the long diameter using an electronic caliper (produced by Mitutoyo Corporation). After tumor cell transplantation, the tumor diameter was measured twice a week.
Based on the measurement results of the tumor diameter, the tumor volume (TV: tumor volume) was calculated using the following formula: […]

[4] = system: NALM6; test: Combination of tolinapant and CD19 CAR-KHYG-1 in NALM6 subcutaneous tumor-bearing NOG mice; type: in vivo, mouse
Method: as §2
After grouping, CD19 CAR KHYG-1 cells and KHYG-1 cells were intratumorally administered 4 times in total according to the group constitution.
The evaluation period was set up to day 17. Grouping and pharmacological evaluation were performed using the results of tumor volume measurement with a caliper as an indicator. The tumor volume measurement and body weight measurement were performed twice a week and before each administration. […]
On the 21th day after the transplantation, the long diameter and the short diameter were measured and the tumor volume was calculated. […]
4) For KHYG-1 cell administration solution and CD19 CAR-KHYG-1 cell administration solution, the number of viable cells was counted and a cell suspension with the cell density being adjusted according to the group composition table was prepared and intratumorally administered twice a week at 0.1 mL/body (4 times in total).
The tumor diameter was determined by measuring the short diameter and the long diameter using an electronic caliper (produced by Mitutoyo Corporation). After tumor cell transplantation, the tumor diameter was measured twice a week. […]

[5] = system: MDA-MB-231; conditions: 16 mg/kg, daily oral administration; References 1 and 2; cited from earlier work

C[C@@H]1CN(CC(=O)N2CC(C)(C)c3nc(CO)c(Cc4ccc(F)cc4)cc32)[C@@H](CN2CCOC[C@H]2C)CN1 [Tolinapant, 1-[6-[(4-fluorophenyl)methyl]-5-(hydroxymethyl)-3,3-dimethyl-2H-pyrrolo[3,2-b]pyridin-1-yl]-2-[(2R,5R)-5-methyl-2-[[(3R)-3-methylmorpholin-4-yl]methyl]piperazin-1-yl]ethanone]
reduction in the number of CAR-T cells achieved by the combination ([1]; 2×10^4 cells + tolinapant versus 1×10^6 cells alone, suggested possibility): at least 50 fold | combination effect of tolinapant and CD19 CAR-T on a low volume of tumor ([1]; tolinapant 16 mg/kg qd po + CD19 CAR-T): a strong combination effect was observed | effect of tolinapant + 1×10^5 cells CD19 CAR-T compared with 1×10^6 cells CD19 CAR-T alone ([1]; tolinapant 16 mg/kg qd po + CD19 CAR-T 1×10^5 cells/body iv): an effect equivalent to the effect achieved by using 1×10^6 cells of CD19 CAR-T alone was observed on day 17 | effect of tolinapant + 2×10^4 cells CD19 CAR-T compared with 1×10^6 cells CD19 CAR-T alone ([1]; tolinapant 16 mg/kg qd po + CD19 CAR-T 2×10^4 cells/body iv): an effect equivalent to the effect achieved by using 1×10^6 cells of CD19 CAR-T alone was observed on day 21 | combination effect of tolinapant and aITGB7 CAR-T (tumor luminescence value) ([2]; tolinapant 16 mg/kg po every day + aITGB7 CAR-T 3×10^4 cells/body iv, evaluated for 21 days): A significant combination effect was observed; also recorded: tumor regression was clearly observed on day 11 and thereafter; also recorded: a significant synergistic effect was observed; also recorded: significant, highly reproducible results | effect of tolinapant administered alone on MM.1S (MM) ([2]; tolinapant alone): no effect | tumor volume on day 15, combination versus either agent alone ([3]; tolinapant 16 mg/kg po + NY-ESO-1 TCR-T 3×10^6 cells/body iv, day 15): a significant difference was observed | tumor regression with NY-ESO-1 TCR-T and tolinapant both administered ([3]; tolinapant 16 mg/kg po + NY-ESO-1 TCR-T iv, compared with NY-ESO-1 TCR-T alone): a higher degree of tumor regression was confirmed; also recorded: synergistic effects based on the combined use were shown; also recorded: significant, highly reproducible results | combination effect of tolinapant and CD19 CAR-KHYG-1 (tumor volume) ([4]; tolinapant 16 mg/kg po every day + CD19 CAR-KHYG-1 1×10^7 cells/body intratumoral Day 0, 4, 7, 11, evaluated for 17 days): A significant combination effect was observed; also recorded: a proliferation suppression effect was clearly shown on day 7 and thereafter; also recorded: significant combination effects were observed on day 17; also recorded: significant, highly reproducible results | antitumor effect of tolinapant alone ([4]; tolinapant alone, 16 mg/kg po every day): no antitumor effects were observed | efficacy of tolinapant in MDA-MB-231 xenograft mice [5]: exhibited efficacy
